System: Candida albicans
Assay: in vitro suspension test representing in-use conditions
Assay type: cell-based
Settings: 5 min
Procedure: The synergistic activity of the cleanser formulation was assessed using an in vitro suspension test representing in-use conditions. In-use conditions represent the actual consumer use of the cleanser (e.g., dissolved tablet concentrations, temperature, and contact time) versus Candida albicans as a relevant oral organism for the denture wearer. To 150 mL of 40° C. water at time zero, the denture cleanser was added, followed by 2 mL of a 10^8 cfu/mL test suspension. After 5 minutes, an aliquot of the solution was removed, neutralized and plated in order to evaluate the amount or log reduction of the test organism.

SMILES: [H]/N=C(\N/C(=N/[H])NCCCCCCNC(=N)NC(=N)Nc1ccc(Cl)cc1)Nc1ccc(Cl)cc1 [Test Formulation 4, 1,6-di-4′-chlorophenyldiguanidohexane]
- antimicrobial activity: does not demonstrate any antimicrobial activity

From patent US20110220154A1, “Dental Appliance Cleanser” (priority 2008, published 2011)
